Source: US10239844B2, “Disubstituted triazole analogs” (BioVentures, LLC, priority 2014, dated 2019)

Experiments:
Format in all cases: cell-based, human
[1] = tested on: K-562; assay: NCI 60 panel five-dose growth inhibition, Leukemia; conditions: K-562, Leukemia; for GI50: Homo sapiens, K562
[2] = tested on: SR; assay: NCI 60 panel five-dose growth inhibition, Leukemia; conditions: for GI50: Homo sapiens
[3] = tested on: MCF7; assay: NCI 60 panel five-dose growth inhibition, Breast Cancer; conditions: for GI50: Homo sapiens
[4] = tested on: SK-MEL-28; assay: NCI 60 panel five-dose growth inhibition, Melanoma; conditions: SK-MEL-28, Melanoma
[5] = tested on: MOLT-4; assay: NCI 60 panel five-dose growth inhibition, Leukemia; conditions: MOLT-4, Leukemia; for GI50: Homo sapiens
[6] = tested on: PC-3; assay: NCI 60 panel five-dose growth inhibition, Prostate Cancer; conditions: PC-3, Prostate Cancer; for GI50: Homo sapiens
[7] = tested on: MDA-MB-435; assay: NCI 60 panel five-dose growth inhibition, Melanoma; conditions: for GI50: Homo sapiens
[8] = tested on: COLO 205; assay: NCI 60 panel five-dose growth inhibition, Colon Cancer; conditions: COLO 205, Colon Cancer; for GI50: Homo sapiens
[9] = tested on: SK-OV-3; assay: NCI 60 panel five-dose growth inhibition, Ovarian Cancer; conditions: SK-OV-3, Ovarian Cancer; for GI50: Homo sapiens
[10] = tested on: MDA-MB-468; assay: NCI 60 panel five-dose growth inhibition, Breast Cancer; conditions: MDA-MB-468, Breast Cancer; for GI50: Homo sapiens
[11] = tested on: HL-60(T13); assay: NCI 60 panel five-dose growth inhibition, Leukemia; conditions: for GI50: Homo sapiens
[12] = tested on: CAKI-1; assay: NCI 60 panel five-dose growth inhibition, Renal Cancer; conditions: CAKI-1, Renal Cancer; for GI50: Homo sapiens
[13] = tested on: UACC-62; assay: NCI 60 panel five-dose growth inhibition, Melanoma; conditions: for TGI: UACC-62, Melanoma
[14] = tested on: LOX IMVI; assay: NCI 60 panel five-dose growth inhibition, Melanoma; conditions: for GI50: Homo sapiens
[15] = tested on: M14; assay: NCI 60 panel five-dose growth inhibition, Melanoma; conditions: for GI50: Homo sapiens
[16] = tested on: A549/ATCC; assay: NCI 60 panel five-dose growth inhibition, Non-Small Cell Lung Cancer; conditions: for GI50: Homo sapiens
[17] = tested on: NCI-H460; assay: as above; conditions: for GI50: Homo sapiens
[18] = tested on: U0-31; assay: NCI 60 panel five-dose growth inhibition, Renal Cancer; conditions: U0-31, Renal Cancer; for GI50: Homo sapiens
[19] = tested on: NCI/ADR-RES; assay: NCI 60 panel five-dose growth inhibition, Ovarian Cancer; conditions: for GI50: Homo sapiens
[20] = tested on: HOP-62; assay: NCI 60 panel five-dose growth inhibition, Non-Small Cell Lung Cancer; conditions: HOP-62, Non-Small Cell Lung Cancer; for GI50: Homo sapiens
[21] = tested on: SF-539; assay: NCI 60 panel five-dose growth inhibition, CNS Cancer; conditions: for GI50: Homo sapiens
[22] = tested on: KM12; assay: NCI 60 panel five-dose growth inhibition, Colon Cancer; conditions: for GI50: Homo sapiens
[23] = tested on: HCT-116; assay: as above; conditions: HCT-116, Colon Cancer; for GI50: Homo sapiens
[24] = tested on: SF-268; assay: NCI 60 panel five-dose growth inhibition, CNS Cancer; conditions: SF-268, CNS Cancer; for GI50: Homo sapiens
[25] = tested on: SNB-75; assay: as above; conditions: SNB-75, CNS Cancer; for GI50: Homo sapiens
[26] = tested on: SK-MEL-2; assay: NCI 60 panel five-dose growth inhibition, Melanoma; conditions: SK-MEL-2, Melanoma; for GI50: Homo sapiens
[27] = tested on: ACHN; assay: NCI 60 panel five-dose growth inhibition, Renal Cancer; conditions: for GI50: Homo sapiens
[28] = tested on: RPMI-8226; assay: NCI 60 panel five-dose growth inhibition, Leukemia; conditions: RPMI-8226, Leukemia; for GI50: Homo sapiens
[29] = tested on: HS 5781; assay: NCI 60 panel five-dose growth inhibition, Breast Cancer; conditions: HS 5781, Breast Cancer; for GI50: Homo sapiens
[30] = tested on: 1-ICT-15; assay: NCI 60 panel five-dose growth inhibition, Colon Cancer; conditions: 1-ICT-15, Colon Cancer; for GI50: Homo sapiens
[31] = tested on: DU-145; assay: NCI 60 panel five-dose growth inhibition, Prostate Cancer; conditions: DU-145, Prostate Cancer; for GI50: Homo sapiens
[32] = tested on: U251; assay: NCI 60 panel five-dose growth inhibition, CNS Cancer; conditions: for GI50: Homo sapiens, U-251
[33] = tested on: SW-620; assay: NCI 60 panel five-dose growth inhibition, Colon Cancer; conditions: SW-620, Colon Cancer; for GI50: Homo sapiens
[34] = tested on: MDA-MB-231/ATCC; assay: NCI 60 panel five-dose growth inhibition, Breast Cancer; conditions: for GI50: Homo sapiens
[35] = tested on: 5K-MEL-5; assay: NCI 60 panel five-dose growth inhibition, Melanoma; conditions: 5K-MEL-5, Melanoma; for GI50: Homo sapiens
[36] = tested on: IGROV1; assay: NCI 60 panel five-dose growth inhibition, Ovarian Cancer; conditions: for GI50: Homo sapiens, IGROV-1
[37] = tested on: HCC-2998; assay: NCI 60 panel five-dose growth inhibition, Colon Cancer; conditions: HCC-2998, Colon Cancer; for GI50: Homo sapiens

For `COc1ccc(-c2n[nH]nc2-c2cc(OC)cc(OC)c2)cc1` [Example 5, 4-(3,5-dimethoxyphenyl)-5-(4-methoxyphenyl)-2H-1,2,3-triazole], the GI50 [1] was under 10 nM, the TGI [1] was over 100 µM and the TGI [2] was over 100 µM. The GI50 [2] was under 10 nM, the TGI [3] was over 100 µM and the GI50 [3] was under 10 nM. The TGI [4] was 60.7 µM, the GI50 [5] was 12 nM and the TGI [5] was 16.1 µM. It also gave a GI50 [6] of under 10 nM, a TGI [6] of 35.2 µM and a GI50 ([7]; MDA-MB-435, Melanoma) of under 10 nM. For the same compound, the TGI ([7]; MDA-MB-435, Melanoma) was under 0.01 µM, the TGI ([7]; MDA-MB-435, as stated in text) was “less than 10 nM” and the TGI [8] was 0.12 µM. The GI50 [8] was 29.2 nM, the GI50 [9] was under 10 nM and the TGI [9] was 40.3 µM. It also gave a GI50 [10] of under 10 nM, a TGI [10] of 22.4 µM and a GI50 [11] of under 10 nM. It also gave a TGI [12] of over 100 µM, a GI50 [12] of under 10 nM and a GI50 ([13]; Homo sapiens, UACC-62, UACC-62, Melanoma) of over 1000 nM. For the same compound, the TGI [13] was over 100 µM, the TGI [14] was over 100 µM and the GI50 [14] was under 10 nM. It also gave a TGI [15] of 23.0 µM, a GI50 [15] of under 10 nM and a TGI [16] of 73.4 µM. It also gave a GI50 [16] of under 10 nM, a TGI [17] of 10.9 µM and a GI50 [17] of under 10 nM. For the same compound, the GI50 [18] was under 10 nM, the TGI [18] was 25.1 µM and the TGI [19] was 17.5 µM. The GI50 [19] was under 10 nM, the TGI [20] was 72.4 µM and the GI50 [20] was under 10 nM. For the same compound, the GI50 ([21]; SF-539, CNS Cancer) was under 10 nM, the TGI ([21]; SF-539, CNS Cancer) was under 0.01 µM and the TGI ([21]; SF-539, as stated in text) was “less than 10 nM”. For the same compound, the TGI [22] was 0.05 µM, the GI50 [22] was under 10 nM and the TGI [23] was over 100 µM. The GI50 [23] was under 10 nM, the GI50 [24] was under 10 nM and the TGI [24] was 90.0 µM. It also gave a GI50 [25] of under 10 nM, a GI50 [26] of under 10 nM and a TGI [26] of 30.5 µM. It also gave a TGI [27] of 62.5 µM, a GI50 [27] of under 10 nM and a GI50 [28] of under 10 nM. For the same compound, the TGI [28] was 24.6 µM, the TGI [29] was over 100 µM and the GI50 [29] was under 10 nM. For the same compound, the TGI [30] was over 100 µM, the GI50 [30] was under 10 nM and the GI50 [31] was under 10 nM. The TGI [32] was 16.5 µM, the GI50 [32] was under 10 nM and the GI50 [33] was under 10 nM. The TGI [33] was over 100 µM, the TGI [34] was over 100 µM and the GI50 [34] was under 10 nM. The TGI [35] was 0.02 µM, the GI50 [35] was under 10 nM and the TGI [36] was 21.5 µM. The GI50 [36] was under 10 nM, the TGI [37] was 22.4 µM and the GI50 [37] was 24.9 nM.

`COc1ccc(-c2n[nH]nc2-c2cc(OC)c(OC)c(OC)c2)cc1` [Example 6, 4-(4-methoxyphenyl)-5-(3,4,5-trimethoxyphenyl)-2H-1,2,3-triazole] gave a GI50 [1] of under 10 nM, a TGI [1] of over 100 µM and a TGI [2] of 24.0 µM. For the same compound, the GI50 [2] was under 10 nM, the TGI [3] was 37.9 µM and the GI50 [3] was under 10 nM. The GI50 ([4]; Homo sapiens) was over 100 nM, the TGI [4] was 34.8 µM and the GI50 [5] was 39.9 nM. It also gave a TGI [5] of 11.6 µM, a GI50 [6] of 18.4 nM and a TGI [6] of 39.4 µM. For the same compound, the GI50 ([7]; MDA-MB-435, Melanoma) was under 10 nM, the TGI [8] was 0.07 µM and the GI50 [8] was 26.7 nM. It also gave a GI50 [9] of under 10 nM, a TGI [9] of 12.7 µM and a GI50 [10] of 14.7 nM. It also gave a TGI [10] of 30.5 µM, a TGI [11] of 0.08 µM and a GI50 [11] of 18.9 nM. For the same compound, the TGI [12] was over 100 µM, the GI50 [12] was under 10 nM and the TGI [13] was 21.2 µM. For the same compound, the TGI [14] was 37.8 µM, the GI50 [14] was 17.5 nM and the GI50 [15] was under 10 nM. It also gave a TGI [16] of 22.6 µM, a GI50 [16] of 22.9 nM and a TGI [17] of 20.0 µM. The GI50 [17] was 24.6 nM, the GI50 [18] was under 10 nM and the TGI [18] was 24.6 µM. For the same compound, the TGI [19] was 69.7 µM, the GI50 [19] was under 10 nM and the TGI [20] was 19.3 µM. For the same compound, the GI50 [20] was 18.2 nM, the GI50 ([21]; SF-539, CNS Cancer) was under 10 nM and the TGI [22] was 11.2 µM. The GI50 [22] was under 10 nM, the TGI [23] was 0.81 µM and the GI50 [23] was under 10 nM. It also gave a GI50 [24] of 68.5 nM, a TGI [24] of over 100 µM and a GI50 [25] of under 10 nM. It also gave a TGI [25] of 21.9 µM, a GI50 [26] of under 10 nM and a TGI [26] of 18.1 µM. The TGI [27] was over 100 µM, the GI50 [27] was under 10 nM and the GI50 [28] was 32.5 nM. The TGI [28] was 11.0 µM, the TGI [29] was 64.2 µM and the GI50 [29] was 668 nM. It also gave a TGI [30] of over 100 µM, a GI50 [30] of under 10 nM and a TGI [31] of over 100 µM. It also gave a GI50 [31] of 25 nM, a TGI [32] of 22.7 µM and a GI50 [32] of 20.1 nM. For the same compound, the GI50 [33] was under 10 nM, the TGI [33] was over 100 µM and the TGI [34] was over 100 µM. The GI50 [34] was 44.4 nM, the TGI [35] was 0.16 µM and the GI50 [35] was under 10 nM. It also gave a TGI [36] of 30.3 µM, a GI50 [36] of 33.2 nM and a TGI [37] of 17.5 µM. It also gave a GI50 [37] of 39.4 nM.
